Assay results: ChEMBL document CHEMBL1201862, “PubChem BioAssay data set” (2004)
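96-well plates; 48 h exposure; 5 concentrations. Endpoints by linear interpolation between flanking doses. Not reached: highest tested concentration assigned. GI50 marks 50% less growth.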 The source made the active and inactive calls. Rule as the data show it: active = GI50 up to about 1.1 µM and inactive = higher.

Assays:
Experiment in all cases: inhibition of tumour cell growth, NCI panel, 48 h
UO-31 = test system: UO-31
M14 = test system: M14
OVCAR-3 = test system: OVCAR-3
SF-268 = test system: SF-268
SK-MEL-2 = test system: SK-MEL-2
NCI-H460 = test system: NCI-H460
ACHN = test system: ACHN
RXF 393 = test system: RXF 393
OVCAR-4 = test system: OVCAR-4
HT-29 = test system: HT-29
SW-620 = test system: SW-620
CCRF-CEM = test system: CCRF-CEM
SNB-19 = test system: SNB-19
OVCAR-8 = test system: OVCAR-8
K562 = test system: K562
KM12 = test system: KM12
LOX IMVI = test system: LOX IMVI
SR = test system: SR

Measured: GI50

Cc1nc(Nc2ccc(Cl)cc2)sc1C(=O)Nc1cccc2c(=O)[nH][nH]c(=O)c12
inactive: UO-31 31.8 µM | M14 17.6 µM | OVCAR-3 18.9 µM | SF-268 31.8 µM | SK-MEL-2 30.4 µM | NCI-H460 25.8 µM | ACHN 20.9 µM | RXF 393 28.6 µM | OVCAR-4 49.4 µM | HT-29 16.8 µM | SW-620 25.5 µM | CCRF-CEM 16.9 µM | SNB-19 43.3 µM | OVCAR-8 > 100 µM | K562 1.26 µM | KM12 51.8 µM | LOX IMVI 13.6 µM | SR 21 µM

CC1=CCP(C(F)(F)F)P(C(F)(F)F)C1 (stereo not given)
inactive: UO-31 > 100 µM | M14 > 100 µM | OVCAR-3 > 100 µM | SF-268 > 100 µM | NCI-H460 > 100 µM | ACHN > 100 µM | RXF 393 5.55 µM | OVCAR-4 > 100 µM | HT-29 > 100 µM | SW-620 > 100 µM | CCRF-CEM > 100 µM | SNB-19 > 100 µM | OVCAR-8 > 100 µM | K562 > 100 µM | KM12 > 100 µM | LOX IMVI > 100 µM | SR > 100 µM

c1ccc2c(c1)cc1n2CC2CN=NC12 (stereo not given)
inactive: UO-31 > 100 µM | M14 > 100 µM | OVCAR-3 > 100 µM | SF-268 > 100 µM | SK-MEL-2 > 100 µM | NCI-H460 > 100 µM | ACHN > 100 µM | RXF 393 > 100 µM | OVCAR-4 > 100 µM | HT-29 > 100 µM | SW-620 > 100 µM | SNB-19 > 100 µM | OVCAR-8 > 100 µM | K562 > 100 µM | KM12 > 100 µM | LOX IMVI > 100 µM | SR > 100 µM

CCOP(=O)(OCC)C1=NC=CC=CC1n1c(-c2ccccc2)nn(CC)c1=O (stereo not given)
inactive: OVCAR-3 > 100 µM | SF-268 > 100 µM | SK-MEL-2 > 100 µM | NCI-H460 > 100 µM | ACHN > 100 µM | RXF 393 > 100 µM | HT-29 > 100 µM | SW-620 > 100 µM | CCRF-CEM > 100 µM | SNB-19 > 100 µM | OVCAR-8 > 100 µM | KM12 > 100 µM | LOX IMVI > 100 µM | SR > 100 µM

CC1C[C@]2(C[C@@H](C)C(=O)O2)O[C@@H]2CC3(C)[C@@H]4CCC5C(C)(C)OC(=O)C[C@H]6OO[C@]4(CC[C@]3(C)C12)CC56O (stereo not given in full)
inactive: UO-31 > 100 µM | M14 > 100 µM | OVCAR-3 > 100 µM | SK-MEL-2 > 100 µM | NCI-H460 > 100 µM | ACHN > 100 µM | RXF 393 > 100 µM | OVCAR-4 > 100 µM | HT-29 > 100 µM | SW-620 > 100 µM | SNB-19 > 100 µM | OVCAR-8 > 100 µM | LOX IMVI > 100 µM | SR > 100 µM

COC(=O)C(=Cc1cc(OC)c(OC)c(OC)c1-c1cc2c(cc1C1(C)OCCS1)OCO2)C(=O)OC (stereo not given)
inactive: OVCAR-3 15.2 µM | SF-268 29.5 µM | SK-MEL-2 21.1 µM | NCI-H460 26.6 µM | ACHN 55.3 µM | RXF 393 26.7 µM | HT-29 37 µM | SW-620 33.2 µM | CCRF-CEM 33 µM | SNB-19 98.9 µM | OVCAR-8 31.6 µM | K562 33.6 µM | KM12 19.1 µM | LOX IMVI 22.6 µM | SR 22.2 µM

COc1ccc(O)cc1 [MEQUINOL]
inactive: UO-31 57.4 µM | M14 53.5 µM | OVCAR-3 44.8 µM | SF-268 55 µM | SK-MEL-2 > 100 µM | NCI-H460 97.1 µM | ACHN 31.3 µM | RXF 393 > 100 µM | OVCAR-4 > 100 µM | HT-29 > 100 µM | SW-620 > 100 µM | CCRF-CEM 60.3 µM | SNB-19 > 100 µM | OVCAR-8 55.7 µM | K562 68.1 µM | KM12 42.7 µM | LOX IMVI 49 µM | SR 89.7 µM

Cc1cc(S(=O)(=O)O)c(NC(=O)C(=O)Cc2cc(=O)oc3cc(O)ccc23)cc1Cl
inactive: UO-31 > 100 µM | M14 > 100 µM | OVCAR-3 > 100 µM | SF-268 > 100 µM | SK-MEL-2 > 100 µM | NCI-H460 > 100 µM | ACHN > 100 µM | RXF 393 > 100 µM | OVCAR-4 > 100 µM | HT-29 > 100 µM | SW-620 > 100 µM | CCRF-CEM > 100 µM | SNB-19 > 100 µM | OVCAR-8 > 100 µM | K562 > 100 µM | KM12 > 100 µM | LOX IMVI > 100 µM | SR > 100 µM

Cn1cc(C(=O)c2ccccc2)cc(C(=O)c2ccccc2)c1=O
inactive: UO-31 > 100 µM | M14 > 100 µM | OVCAR-3 > 100 µM | SF-268 > 100 µM | SK-MEL-2 > 100 µM | NCI-H460 > 100 µM | ACHN > 100 µM | RXF 393 > 100 µM | OVCAR-4 > 100 µM | HT-29 > 100 µM | SW-620 > 100 µM | CCRF-CEM > 100 µM | SNB-19 > 100 µM | OVCAR-8 > 100 µM | K562 > 100 µM | KM12 > 100 µM | LOX IMVI > 100 µM | SR > 100 µM

Cc1cccc2c1Sc1ccccc1C2NC(=O)CCN(C)C (stereo not given)
inactive: UO-31 > 100 µM | M14 > 100 µM | SF-268 > 100 µM | NCI-H460 > 100 µM | ACHN > 100 µM | RXF 393 > 100 µM | OVCAR-4 > 100 µM | HT-29 > 100 µM | SW-620 > 100 µM | CCRF-CEM > 100 µM | SNB-19 > 100 µM | OVCAR-8 > 100 µM | K562 > 100 µM | LOX IMVI > 100 µM | SR > 100 µM

COc1ccc(NC(=O)/C(=N/O)C(C)=O)cc1
inactive: UO-31 > 100 µM | M14 > 100 µM | SF-268 > 100 µM | SK-MEL-2 > 100 µM | NCI-H460 23.5 µM | ACHN > 100 µM | RXF 393 > 100 µM | HT-29 > 100 µM | SW-620 15.8 µM | CCRF-CEM 75.3 µM | SNB-19 > 100 µM | OVCAR-8 > 100 µM | K562 47.5 µM | KM12 > 100 µM | LOX IMVI 30.8 µM | SR > 100 µM

CCC12CCCN(Cc3ccccc3)C1c1c(n(C)c3ccccc13)[C@H](C(=O)OC)C2 (stereo not given in full)
inactive: OVCAR-3 > 239 µM | SF-268 > 239 µM | SK-MEL-2 > 239 µM | NCI-H460 > 239 µM | ACHN > 239 µM | RXF 393 > 239 µM | HT-29 32 µM | SW-620 211 µM | CCRF-CEM > 239 µM | SNB-19 > 239 µM | OVCAR-8 > 239 µM | K562 > 239 µM | KM12 > 239 µM | LOX IMVI > 239 µM | SR > 239 µM
